Legend:
[1] = target: PHD2 enzyme (residues 181-417) (Homo sapiens (Human), UniProt Q9GZT9); assay: Inhibition of PHD enzyme (LC/MS peptide hydroxylation assay); type: biochemical; details: PHD2 (residues 181-417) 5 nM, 60 min pre-incubation; -log(IC50), IC50 molar
Outline: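 Hydroxylated peptide quantified by LC/MS after 60 min turnover of 1 uM biotinylated peptide with 2 uM 2-oxoglutarate and 1 mM ascorbate, stopped by excess tight-binding inhibitor. Beforehand, 5 nM enzyme and compound were preincubated 60 min at RT, pH 7.3 HEPES/KCl/TCEP/FeCl2/BSA buffer. Values as pIC50 (−log molar IC50).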

[2] = tested on: HIF1a protein in H9c2 rat cardiomyocytes; assay: Cell-based HIF-alpha stabilization assay (inhibition of PHD in cells); details: 24 hrs compound incubation, HIF1a protein by ELISA; for EC50: Rattus norvegicus, H9c2, 24 h, read-out: Inhibition of PHD in cells (pEC50) (converted)
Outline: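 HIF1a stabilization was measured by ELISA on lysates of H9c2 rat cardiomyocytes after 24 h exposure to 11 serial compound concentrations, expressed relative to the desferrioxamine maximum. Curve fits gave EC50. EC50pos denotes the concentration producing half the desferrioxamine maximal response.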

PHD2 enzyme (residues 181-417), sequence (Q9GZT9 181-417): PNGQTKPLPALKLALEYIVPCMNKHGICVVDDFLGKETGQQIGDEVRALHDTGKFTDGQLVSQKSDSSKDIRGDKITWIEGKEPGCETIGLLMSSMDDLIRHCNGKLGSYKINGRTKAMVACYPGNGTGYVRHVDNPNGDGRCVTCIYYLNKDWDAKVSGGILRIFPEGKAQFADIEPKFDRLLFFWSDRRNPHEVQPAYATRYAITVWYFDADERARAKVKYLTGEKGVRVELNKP

SMILES | PHD Inhibition (pIC50) [1] | EC50 [2] [µM] | Inhibition of PHD in cells (pEC50) [2]
COC(C)(C)CNC(=O)c1ccc(-n2ncc(-c3ccc(C#N)cc3)c2O)nc1 [Example 55, 6-(4-(4-cyanophenyl)-5-hydroxy-1H-pyrazol-1-yl)-N-(2-methoxy-2-methylpropyl)nicotinamide] | 7.2 | 1.86 | 
COCC1(CNC(=O)c2ccc(-n3ncc(-c4ccc(C#N)cc4)c3O)nc2)CC1 [Example 56, 6-(4-(4-cyanophenyl)-5-hydroxy-1H-pyrazol-1-yl)-N-((1-(methoxymethyl)cyclopropyl)methyl)nicotinamide] | 7.12 | 1.45 | 
CN1CCC(CNC(=O)c2ccc(-n3ncc(-c4ccc(C#N)cc4)c3O)nc2)CC1 [Example 57, 6-(4-(4-cyanophenyl)-5-hydroxy-1H-pyrazol-1-yl)-N-((1-methylpiperidin-4-yl)methyl)nicotinamide] | 6.98 |  | 5.70
CC[C@@H](C)NC(=O)c1ccc(-n2ncc(-c3ccc(C#N)cc3C)c2O)nc1 [Example 58, (R)—N-(sec-butyl)-6-(4-(4-cyano-2-methylphenyl)-5-hydroxy-1H-pyrazol-1-yl)nicotinamide] | 7.16 | 0.158 | 
Cc1cc(C#N)ccc1-c1cnn(-c2ccc(C(=O)NC3CCOCC3)cn2)c1O [Example 59, 6-(4-(4-cyano-2-methylphenyl)-5-hydroxy-1H-pyrazol-1-yl)-N-(tetrahydro-2H-pyran-4-yl)nicotinamide] | 7.33 | 0.0708 | 
CCCNC(=O)c1ccc(-n2ncc(-c3ccc(C#N)cc3C)c2O)nc1 [Example 60, 6-(4-(4-cyano-2-methylphenyl)-5-hydroxy-1H-pyrazol-1-yl)-N-propylnicotinamide] | 7.14 | 0.2 | 
Cc1cc(C#N)ccc1-c1cnn(-c2ccc(C(=O)NC3(C)CC3)cn2)c1O [Example 61, 6-(4-(4-cyano-2-methylphenyl)-5-hydroxy-1H-pyrazol-1-yl)-N-(1-methylcyclopropyl)nicotinamide] | 7.19 | 0.0794 | 
COC[C@@H](NC(=O)c1ccc(-n2ncc(-c3ccc(C#N)cc3C)c2O)nc1)C(C)C [Example 62, (S)-6-(4-(4-cyano-2-methylphenyl)-5-hydroxy-1H-pyrazol-1-yl)-N-(1-methoxy-3-methylbutan-2-yl)nicotinamide] | 7.14 | 0.182 | 
Cc1cc(C#N)ccc1-c1cnn(-c2ccc(C(=O)N[C@H](C)C3CCOCC3)cn2)c1O [Example 63, (R)-6-(4-(4-cyano-2-methylphenyl)-5-hydroxy-1H-pyrazol-1-yl)-N-(1-(tetrahydro-2H-pyran-4-yl)ethyl)nicotinamide] | 7.25 | 0.158 | 
Cc1cc(C#N)ccc1-c1cnn(-c2ccc(C(=O)NCCC3CCOCC3)cn2)c1O [Example 64, 6-(4-(4-cyano-2-methylphenyl)-5-hydroxy-1H-pyrazol-1-yl)-N-(2-(tetrahydro-2H-pyran-4-yl)ethyl)nicotinamide] | 7.25 | 0.158 | 
COCC(C)(C)NC(=O)c1ccc(-n2ncc(-c3ccc(C#N)cc3C)c2O)nc1 [Example 65, 6-(4-(4-cyano-2-methylphenyl)-5-hydroxy-1H-pyrazol-1-yl)-N-(1-methoxy-2-methylpropan-2-yl)nicotinamide] | 7.08 | 0.182 | 
Cc1cc(C#N)ccc1-c1cnn(-c2ccc(C(=O)NCCC3CCOC3)cn2)c1O (stereo not shown) [Example 66, 6-(4-(4-cyano-2-methylphenyl)-5-hydroxy-1H-pyrazol-1-yl)-N-(2-(tetrahydrofuran-3-yl)ethyl)nicotinamide] | 7.22 | 0.12 | 
COCCC(C)(C)NC(=O)c1ccc(-n2ncc(-c3ccc(C#N)cc3C)c2O)nc1 [Example 67, 6-(4-(4-cyano-2-methylphenyl)-5-hydroxy-1H-pyrazol-1-yl)-N-(4-methoxy-2-methylbutan-2-yl)nicotinamide] | 7.11 | 0.219 | 
CO[C@H]1CC[C@H](NC(=O)c2ccc(-n3ncc(-c4ccc(C#N)cc4C)c3O)nc2)CC1 [Example 68, 6-(4-(4-cyano-2-methylphenyl)-5-hydroxy-1H-pyrazol-1-yl)-N-((1r,4r)-4-methoxycyclohexyl)nicotinamide] | 7.44 | 0.0501 | 
COCCC(C)NC(=O)c1ccc(-n2ncc(-c3ccc(C#N)cc3C)c2O)nc1 (stereo not shown) [Example 69, 6-(4-(4-cyano-2-methylphenyl)-5-hydroxy-1H-pyrazol-1-yl)-N-(4-methoxybutan-2-yl)nicotinamide] | 7.22 | 0.0891 | 
Cc1cc(C#N)ccc1-c1cnn(-c2ccc(C(=O)NCCCOCC3CC3)cn2)c1O [Example 70, 6-(4-(4-cyano-2-methylphenyl)-5-hydroxy-1H-pyrazol-1-yl)-N-(3-(cyclopropylmethoxy)propyl)nicotinamide] | 7.17 | 0.229 | 

SMILES | PHD Inhibition (pIC50) [1] | EC50 [2] [µM] | Inhibition of PHD in cells (pEC50) [2]
Cc1cc(C#N)ccc1-c1cnn(-c2ccc(C(=O)NC(CO)C3CCOC3)cn2)c1O (stereo not shown) [Example 71, 6-(4-(4-cyano-2-methylphenyl)-5-hydroxy-1H-pyrazol-1-yl)-N-(2-hydroxy-1-(tetrahydrofuran-3-yl)ethyl)nicotinamide] | 7.24 | 0.269 | 
N#Cc1ccc(-c2cnn(-c3ccc(C(=O)NC4CCNCC4)cn3)c2O)cc1 [Example 72] | 7.8 | 2.88 | 
CC[C@H](CC#N)NC(=O)c1ccc(-n2ncc(-c3ccc(C#N)cc3)c2O)nc1 [Example 74, (R)—N-(1-cyanobutan-2-yl)-6-(4-(4-cyanophenyl)-5-hydroxy-1H-pyrazol-1-yl)nicotinamide] | 7.05 | 3.16 | 
N#Cc1ccc(-c2cnn(-c3ccc(C(=O)NC4CCCCC4)cn3)c2O)cc1 [Example 75, 6-(4-(4-cyanophenyl)-5-hydroxy-1H-pyrazol-1-yl)-N-cyclohexylnicotinamide] | 7.28 | 1.7 | 
CN1CC(NC(=O)c2ccc(-n3ncc(-c4ccc(C#N)cc4)c3O)nc2)C1 [Example 76, 6-(4-(4-cyanophenyl)-5-hydroxy-1H-pyrazol-1-yl)-N-(1-methylazetidin-3-yl)nicotinamide] | 6.68 | 3.09 | 
N#Cc1ccc(-c2cnn(-c3ccc(C(=O)NCC(F)(F)F)cn3)c2O)cc1 [Example 77, 6-(4-(4-cyanophenyl)-5-hydroxy-1H-pyrazol-1-yl)-N-(2,2,2-trifluoroethyl)nicotinamide] | 7.03 | 1.26 | 
N#Cc1ccc(-c2cnn(-c3ccc(C(=O)NCCF)cn3)c2O)cc1 [Example 78, 6-(4-(4-cyanophenyl)-5-hydroxy-1H-pyrazol-1-yl)-N-(2-fluoroethyl)nicotinamide] | 7.07 | 1.55 | 
CCC(C)NC(=O)c1ccc(-n2ncc(-c3ccc(C#N)cc3)c2O)nc1 (stereo not shown) [Example 80, N-(sec-butyl)-6-(4-(4-cyanophenyl)-5-hydroxy-1H-pyrazol-1-yl)nicotinamide] | 7.23 | 1.07 | 
N#Cc1ccc(-c2cnn(-c3ccc(C(=O)NC4CCOCC4)cn3)c2O)cc1 [Example 81, 6-(4-(4-cyanophenyl)-5-hydroxy-1H-pyrazol-1-yl)-N-(tetrahydro-2H-pyran-4-yl)nicotinamide] | 7.2 | 4.79 | 
N#Cc1ccc(-c2cnn(-c3ccc(C(=O)NC4CCC(F)(F)CC4)cn3)c2O)cc1 [Example 84, 6-(4-(4-cyanophenyl)-5-hydroxy-1H-pyrazol-1-yl)-N-(4,4-difluorocyclohexyl)nicotinamide] | 6.91 | 2.24 | 
N#Cc1ccc(-c2cnn(-c3ccc(C(=O)NC4CCN(CCO)CC4)cn3)c2O)cc1 [Example 85, 6-(4-(4-cyanophenyl)-5-hydroxy-1H-pyrazol-1-yl)-N-(1-(2-hydroxyethyl)piperidin-4-yl)nicotinamide] | 6.94 | 2.24 | 
CC[C@H](C)NC(=O)c1ccc(-n2ncc(-c3ccc(C#N)cc3)c2O)nc1 [Example 87, (S)—N-(sec-butyl)-6-(4-(4-cyanophenyl)-5-hydroxy-1H-pyrazol-1-yl)nicotinamide] | 7.66 | 0.603 | 
CC(C)OCCNC(=O)c1ccc(-n2ncc(-c3ccc(C#N)cc3)c2O)nc1 [Example 89, 6-(4-(4-cyanophenyl)-5-hydroxy-1H-pyrazol-1-yl)-N-(2-isopropoxyethyl)nicotinamide] | 7.24 | 0.708 | 
N#Cc1ccc(-c2cnn(-c3ccc(C(=O)NCCCN4CCOCC4)cn3)c2O)cc1 [Example 91, 6-(4-(4-cyanophenyl)-5-hydroxy-1H-pyrazol-1-yl)-N-(3-morpholinopropyl)nicotinamide] | 7.18 | 0.933 | 
N#Cc1ccc(-c2cnn(-c3ccc(C(=O)NC4CCN(C5CC5)CC4)cn3)c2O)cc1 [Example 93, 6-(4-(4-cyanophenyl)-5-hydroxy-1H-pyrazol-1-yl)-N-(1-cyclopropylpiperidin-4-yl)nicotinamide] | 7.08 | 0.871 | 
Cc1cc(C#N)ccc1-c1cnn(-c2ccc(C(=O)NCC3CCN(C)CC3)cn2)c1O [Example 94, 6-(4-(4-cyano-2-methylphenyl)-5-hydroxy-1H-pyrazol-1-yl)-N-((1-methylpiperidin-4-yl)methyl)nicotinamide] | 7.9 | 0.0933 | 

— patent US10407409B2, “6-(5-hydroxy-1H-pyrazol-1-yl)nicotinamide inhibitors of PHD” (Takeda Pharmaceutical Company Limited, priority 2013, dated 2019)
